Measurements published in patent US20230142789A1, “A SWEETENER OR SWEETNESS ENHANCER COMPOSITION” (ANALYTICON DISCOVERY GMBH, priority 2020, published 2023).

Test: Organoleptic test of the compounds against sucrose
Format: in vivo
Parameters: key: 3: sweeter than the control solution; 2: sweetness comparable with the control solution; 1: less sweet than the control solution but still sweet
Settings: 0.4 mg/ml (400 ppm) in non-carbonated mineral water vs sucrose 20 g/l; panel of 3-4 panelists
Protocol: The isolated pure compound was dissolved in non-carbonated mineral water (“Evian”) in a concentration of 0.4 mg/ml (400 ppm). The sweet taste of each sample was compared by a panel of 3-4 panelists with a solution of sucrose in a concentration of 20 g/I.

11-Oxoisomogroside V [11-Isomogroside V]
Sweetness: 3

C[C@H](CC[C@@H](O[C@@H]1O[C@H](CO[C@@H]2O[C@H](CO)[C@@H](O)[C@H](O)[C@H]2O)[C@@H](O)[C@H](O)[C@H]1O[C@@H]1O[C@H](CO)[C@@H](O)[C@H](O)[C@H]1O)C(C)(C)O)[C@H]1CC[C@@]2(C)[C@@H]3CC=C4C(CC[C@H](O[C@@H]5O[C@H](CO[C@@H]6O[C@H](CO[C@@H]7O[C@H](CO)[C@@H](O)[C@H](O)[C@H]7O)[C@@H](O)[C@H](O)[C@H]6O)[C@@H](O)[C@H](O)[C@H]5O)C4(C)C)[C@]3(C)[C@H](O)C[C@]12C (some centres unmarked) [Mogroside Via]
Sweetness: 3
